# According to patent publication US8916565B2, “Pyrrolopyrazine-spirocyclic piperidine amides as modulators of ion channels” (priority 2011, dated 2014):
# Molecular target: human NaV subtype, like NaV 1.7 (Homo sapiens, UniProt Q15858)
# Test: E-VIPR optical membrane potential assay with electrical stimulation
# Type: cell-based
# Settings: active against one or more sodium channels; Table 3 does not name the assay or NaV subtype; read-out: Binned Activity Data (IC50)
# human NaV subtype, like NaV 1.7, sequence (Q15858 whole entry): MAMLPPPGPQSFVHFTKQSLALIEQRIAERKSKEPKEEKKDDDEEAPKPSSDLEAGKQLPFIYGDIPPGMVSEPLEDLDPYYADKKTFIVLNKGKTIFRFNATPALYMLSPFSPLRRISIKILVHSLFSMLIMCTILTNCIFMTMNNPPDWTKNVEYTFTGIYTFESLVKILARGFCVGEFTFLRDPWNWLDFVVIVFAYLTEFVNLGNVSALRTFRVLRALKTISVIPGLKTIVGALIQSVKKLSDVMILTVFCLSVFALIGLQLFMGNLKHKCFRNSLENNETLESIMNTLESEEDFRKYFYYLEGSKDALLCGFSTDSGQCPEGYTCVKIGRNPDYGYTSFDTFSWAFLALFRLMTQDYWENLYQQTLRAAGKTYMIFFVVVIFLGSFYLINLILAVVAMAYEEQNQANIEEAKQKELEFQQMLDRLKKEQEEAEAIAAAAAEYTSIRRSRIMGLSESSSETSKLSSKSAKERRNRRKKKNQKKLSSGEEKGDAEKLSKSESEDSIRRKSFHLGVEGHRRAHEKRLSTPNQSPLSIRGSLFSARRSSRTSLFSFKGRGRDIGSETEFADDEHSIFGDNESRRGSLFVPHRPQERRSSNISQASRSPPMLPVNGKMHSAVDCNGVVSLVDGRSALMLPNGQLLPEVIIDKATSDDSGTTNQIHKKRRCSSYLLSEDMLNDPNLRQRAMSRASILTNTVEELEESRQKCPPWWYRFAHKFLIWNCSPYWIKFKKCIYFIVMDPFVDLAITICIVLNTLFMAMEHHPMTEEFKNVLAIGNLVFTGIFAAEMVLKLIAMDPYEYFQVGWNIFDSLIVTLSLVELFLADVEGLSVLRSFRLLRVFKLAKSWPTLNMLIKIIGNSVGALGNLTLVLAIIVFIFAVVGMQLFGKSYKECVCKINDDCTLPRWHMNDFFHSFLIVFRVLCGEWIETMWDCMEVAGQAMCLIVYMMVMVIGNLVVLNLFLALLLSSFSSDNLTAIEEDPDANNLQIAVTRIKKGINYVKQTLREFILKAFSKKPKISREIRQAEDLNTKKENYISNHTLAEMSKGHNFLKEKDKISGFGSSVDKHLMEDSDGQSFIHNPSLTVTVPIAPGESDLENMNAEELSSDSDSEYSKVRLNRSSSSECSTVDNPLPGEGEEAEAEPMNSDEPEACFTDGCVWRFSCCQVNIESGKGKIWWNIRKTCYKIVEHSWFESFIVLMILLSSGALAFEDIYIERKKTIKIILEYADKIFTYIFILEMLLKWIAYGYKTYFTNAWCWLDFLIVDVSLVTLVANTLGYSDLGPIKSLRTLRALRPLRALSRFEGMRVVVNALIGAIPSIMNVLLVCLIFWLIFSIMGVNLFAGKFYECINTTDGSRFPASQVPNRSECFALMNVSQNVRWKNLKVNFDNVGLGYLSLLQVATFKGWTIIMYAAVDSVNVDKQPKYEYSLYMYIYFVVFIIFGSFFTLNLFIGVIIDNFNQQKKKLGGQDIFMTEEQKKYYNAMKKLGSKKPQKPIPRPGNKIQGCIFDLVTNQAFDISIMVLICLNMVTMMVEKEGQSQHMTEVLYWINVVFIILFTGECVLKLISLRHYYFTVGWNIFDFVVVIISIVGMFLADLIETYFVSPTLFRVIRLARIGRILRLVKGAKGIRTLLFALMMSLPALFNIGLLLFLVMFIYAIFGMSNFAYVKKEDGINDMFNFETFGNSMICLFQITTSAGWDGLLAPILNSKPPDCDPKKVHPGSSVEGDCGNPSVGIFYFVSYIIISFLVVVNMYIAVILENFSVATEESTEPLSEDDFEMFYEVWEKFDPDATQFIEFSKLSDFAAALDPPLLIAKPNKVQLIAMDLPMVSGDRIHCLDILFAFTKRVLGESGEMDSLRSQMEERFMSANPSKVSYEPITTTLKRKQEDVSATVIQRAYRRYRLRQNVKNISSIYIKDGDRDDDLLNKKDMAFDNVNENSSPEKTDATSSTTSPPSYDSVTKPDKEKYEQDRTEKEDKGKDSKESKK
row,Structure (SMILES),IC50 [nM]
1,COc1ccc(C(=O)N2CCC3(CC2)c2c(F)cc(C(F)(F)F)n2CCN3C)cc1C(F)(F)F [Compound 255],≤ 2000
2,CN1CCn2c(C(F)(F)F)ccc2C12CCN(C(=O)c1ccc(S(=O)(=O)C3CC3)cc1)CC2 [Compound 257],≤ 2000
3,COc1cc(C(=O)N2CCC3(CC2)c2c(Cl)cc(C(F)(F)F)n2CCN3C)ccc1OCC(C)(C)F [Compound 258],≤ 2000
4,COC(=O)N1CCn2c(C(F)(F)F)ccc2C12CCN(C(=O)c1ccc(OC(C)C)c(OC)c1)CC2 [Compound 259],≤ 2000
5,Cc1nc(C(=O)N2CCC3(CC2)c2c(Cl)cc(C(F)(F)F)n2CCN3C)ccc1OC(C)C [Compound 261],≤ 2000
6,Cc1cc(C(=O)N2CCC3(CC2)c2c(F)cc(C(F)(F)F)n2CCN3C)ccc1C(C)(C)O [Compound 262],≤ 2000
7,COc1c(F)cccc1C(=O)N1CCC2(CC1)c1ccc(C(=O)C(F)(F)F)n1C[C@H](C)N2C [Compound 264],≤ 2000
8,Cc1cc(C(=O)N2CCC3(CC2)NCCn2c(C(F)(F)F)ccc23)ccc1S(=O)(=O)N(C)C [Compound 265],≤ 2000
9,CC(=O)c1ccc2n1CCN(C)C21CCN(C(=O)c2ccc(S(=O)(=O)C(F)F)cc2)CC1 [Compound 268],> 5000
10,COCCN1CCn2cccc2C12CCN(C(=O)c1ccc(OC(C)C)c(C)c1)CC2 [Compound 269],≤ 2000
11,CC(C)Oc1ccc(C(=O)N2CCC3(CC2)NC(C)(C)Cn2c(C(=O)C(F)(F)F)ccc23)cc1Cl [Compound 270],≤ 2000
12,CN1CCn2c(C(=O)C(F)(F)F)ccc2C12CCN(C(=O)c1ccc(Cl)c(O)c1)CC2 [Compound 271],> 5000
13,CN1CCn2c(C(=O)C(C)(C)C)ccc2C12CCN(C(=O)c1ccc(S(=O)(=O)NC3CC3)cc1)CC2 [Compound 274],≤ 2000
14,CCCCc1ccc(C(=O)N2CCC3(CC2)c2ccc(Cl)n2CCN3C)cc1 [Compound 275],2000 to 5000
15,COc1ccc(C(=O)N2CCC3(CC2)c2ccc(C(=O)C4(C)CC4)n2CCN3C)cc1C [Compound 276],≤ 2000
16,CCc1ccc(C(=O)N2CCC3(CC2)c2ccc(C(C)=O)n2CCN3C)cc1 [Compound 278],> 5000
17,Cc1cc(C(=O)N2CCC3(CC2)c2ccc(CC(F)(F)F)n2CCN3C)ccc1OC(C)C [Compound 279],≤ 2000
18,CN1CCn2c(C(F)(F)F)ccc2C12CCN(C(=O)c1cccc3cccnc13)CC2 [Compound 281],≤ 2000

row,Structure (SMILES),IC50 [nM]
1,COc1ccc(C(=O)N2CCC3(CC2)c2ccc(C(=O)C4(C)CC4)n2CCN3C)cc1C(F)(F)F [Compound 282],≤ 2000
2,CNS(=O)(=O)c1ccc(C(=O)N2CCC3(CC2)NCCn2c(C(F)(F)F)ccc23)cc1C [Compound 283],2000 to 5000
3,CC(=O)c1ccc2n1CCN(C)C21CCN(C(=O)c2ccc(OC(C)C)c(C#N)c2)CC1 [Compound 285],2000 to 5000
4,CCC(c1ccc(F)cc1)n1cc(C(=O)N2CCC3(CC2)c2ccc(C(F)(F)F)n2CCN3C)nn1 (centres unmarked) [Compound 293],> 5000
5,Cc1cc(C(=O)N2CCC3(CC2)c2ccc(C(=O)C(F)(F)F)n2CCN3C)ccc1-c1ccn(C)n1 [Compound 295],> 5000
6,CCS(=O)(=O)c1ccc(C(=O)N2CCC3(CC2)c2ccc(C(F)(F)F)n2CCN3C)cc1C [Compound 298],≤ 2000
7,CN1CCn2c(C(F)(F)F)ccc2C12CCN(C(=O)c1cccnc1N1CCCC1)CC2 [Compound 305],≤ 2000
8,COc1cc(C(=O)N2CCC3(CC2)N[C@@H](C)Cn2c(C(F)(F)F)ccc23)ccc1OC(C)C [Compound 306],2000 to 5000
9,CN1CCn2c(C(F)(F)F)cc(F)c2C12CCN(C(=O)c1ccc(CC(C)(C)O)cc1)CC2 [Compound 313],≤ 2000
10,COc1ccc(C(=O)N2CCC3(CC2)c2ccc(C(=O)C(C)(C)C)n2CCN3C)cc1C [Compound 314],≤ 2000
11,COc1cc(C(=O)N2CCC3(CC2)c2ccc(C(=O)C(F)(F)F)n2CCN3C)ccc1OC(C)C [Compound 315],≤ 2000
12,C=C(C)c1ccc(C(=O)N2CCC3(CC2)c2ccc(C(F)(F)F)n2CCN3C)cc1C [Compound 316],≤ 2000
13,Cc1cc(C(=O)N2CCC3(CC2)NC(C)(C)Cn2c(C(=O)C(F)(F)F)ccc23)ccc1O [Compound 318],≤ 2000
14,COc1cc(C(=O)N2CCC3(CC2)NC(C)Cn2c(C(F)(F)F)ccc23)ccc1OC(C)C (centres unmarked) [Compound 320],≤ 2000
15,COc1ccc(C(=O)N2CCC3(CC2)c2ccc(C(F)(F)F)n2CCN3C)cc1OC [Compound 321],> 5000
16,Cc1nc(C(=O)N2CCC3(CC2)c2ccc(C(=O)C(F)(F)F)n2CCN3C)ccc1O [Compound 322],≤ 2000
17,CN1CCn2c(Cl)ccc2C12CCN(C(=O)c1ccc(OC(F)(F)F)cc1)CC2 [Compound 323],> 5000
18,CC(C)Oc1ccc(C(=O)N2CCC3(CC2)NCC(C)n2c(C(=O)C(F)(F)F)ccc23)cc1Cl (centres unmarked) [Compound 324],≤ 2000

# Further lines, results first:
row,IC50 [nM],Structure (SMILES)
1,> 5000,COc1ccc(C(=O)N2CCC3(CC2)c2ccc(C(=O)C(F)(F)F)n2C[C@@H](C)N3C)cc1Cl [Compound 252]
2,≤ 2000,CN1CCn2c(ccc2C(F)(F)C(F)(F)F)C12CCN(C(=O)c1ccc(C(C)(C)O)c(F)c1)CC2 [Compound 253]
3,≤ 2000,CC1(C)Cn2c(C(=O)C(F)(F)F)ccc2C2(CCN(C(=O)c3ccc(C(C)(C)O)c(F)c3)CC2)N1 [Compound 254]
4,> 5000,Cc1cc(C(=O)N2CCC3(CC2)NC(C)(C)Cn2cc(F)c(F)c23)ccc1OC(C)C [Compound 256]
5,2000 to 5000,CC(=O)c1ccc2n1CCN(C)C21CCN(C(=O)c2ccc(Cc3ccccc3)cc2)CC1 [Compound 260]
6,≤ 2000,Cc1cc(C(=O)N2CCC3(CC2)c2ccc(C(F)(F)F)n2CCN3C)ccc1OCC(C)(C)O [Compound 263]
7,≤ 2000,Cc1cc(C(=O)N2CCC3(CC2)c2ccc(C(=O)C(F)(F)F)n2CCN3C)ccc1C(C)(C)O [Compound 266]
8,2000 to 5000,CN1CCn2c(C(=O)C3(C)CC3)ccc2C12CCN(C(=O)c1ccc(C(C)(C)O)cc1)CC2 [Compound 267]
9,2000 to 5000,CN1CCn2c(C(F)(F)F)ccc2C12CCN(C(=O)c1ccccc1OC(F)(F)F)CC2 [Compound 272]
10,2000 to 5000,CC(C)Oc1ccc(C(=O)N2CCC3(CC2)NCCn2c(C(F)(F)F)ccc23)cc1 [Compound 273]
11,≤ 2000,CC(=O)c1ccc2n1CC(C)(C)NC21CCN(C(=O)c2ccc(OC(C)C)c(Cl)c2)CC1 [Compound 277]
12,≤ 2000,Cc1cc(C(=O)N2CCC3(CC2)NCC(C)(C)n2c(C(F)(F)F)ccc23)ccc1OC(C)C [Compound 280]
13,≤ 2000,CC(C)CCOc1ccc(C(=O)N2CCC3(CC2)NCC(C)n2c(C(=O)C(F)(F)F)ccc23)cc1 (centres unmarked) [Compound 284]
14,≤ 2000,CC(=O)c1ccc2n1CC(C)(C)NC21CCN(C(=O)c2ccc(OC(C)C)cc2F)CC1 [Compound 286]
15,2000 to 5000,CN1CCn2c(C(=O)C(F)(F)F)ccc2C12CCN(C(=O)c1ccc(-c3ccccc3)c(O)c1)CC2 [Compound 287]
16,≤ 2000,COc1cc(C(=O)N2CCC3(CC2)c2ccc(C(=O)C(F)(F)F)n2CCN3C)ccc1COCCC(F)(F)F [Compound 288]
17,≤ 2000,CN1CCn2c(ccc2C(F)(F)C(F)(F)F)C12CCN(C(=O)c1ccc(S(=O)(=O)NC3CC3)cc1)CC2 [Compound 289]
18,≤ 2000,CC(C)c1ccc(C(=O)N2CCC3(CC2)c2ccc(C(=O)C(F)(F)F)n2CCN3C)cc1 [Compound 290]
19,≤ 2000,Cc1cc(C(=O)N2CCC3(CC2)c2ccc(C(=O)C(F)(F)F)n2CCN3C)cnc1OC(C)C [Compound 291]

row,IC50 [nM],Structure (SMILES)
1,> 5000,CCCc1ccc(C(=O)N2CCC3(CC2)c2ccc(C(C)=O)n2CCN3C)cc1 [Compound 292]
2,≤ 2000,CC[C@@H](C)Oc1ccc(C(=O)N2CCC3(CC2)c2ccc(Cl)n2CCN3C)cc1OC [Compound 294]
3,≤ 2000,CCOC(=O)N1CCn2c(C#N)ccc2C12CCN(C(=O)c1ccc(OC(C)C)c(Cl)c1)CC2 [Compound 296]
4,≤ 2000,CCOc1ncccc1C(=O)N1CCC2(CC1)c1ccc(C(F)(F)F)n1CCN2C [Compound 297]
5,≤ 2000,COc1cc(C(=O)N2CCC3(CC2)c2ccc(C(F)(F)C(F)(F)F)n2CCN3C)ccc1OC(C)(C)C [Compound 299]
6,≤ 2000,C[C@H]1Cn2c(C(=O)C(F)(F)F)ccc2C2(CCN(C(=O)c3ccc(S(=O)(=O)C(C)(C)C)cc3)CC2)N1C [Compound 300]
7,> 5000,CN1CCn2c(Cl)ccc2C12CCN(C(=O)c1ccc(C3(O)CCCC3)cc1)CC2 [Compound 301]
8,2000 to 5000,CN1CCn2c(ccc2S(C)(=O)=O)C12CCN(C(=O)c1ccc(C3CCCCC3)cc1)CC2 [Compound 302]
9,> 5000,Cc1cc(C(=O)N2CCC3(CC2)c2ccc(C(=O)C(F)(F)F)n2CCN3C)ccc1-c1c[nH]nc1C(F)(F)F [Compound 303]
10,≤ 2000,CC(=O)c1ccc2n1CCN(C)C21CCN(C(=O)c2ccc(-c3ccccc3)c(C)c2)CC1 [Compound 304]
11,≤ 2000,Cc1cc(C(=O)N2CCC3(CC2)c2ccc(C(F)(F)F)n2CCN3C2CC2)ccc1C(C)(C)O [Compound 307]
12,≤ 2000,Cc1cc(C(=O)N2CCC3(CC2)N[C@H](C)Cn2c(C(F)(F)F)ccc23)ccc1OC(C)C [Compound 308]
13,> 5000,CC(=O)c1ccc2n1CCN(C)C21CCN(C(=O)c2ccc(C3(O)CCCC3)cc2)CC1 [Compound 309]
14,> 5000,CC1CCN(S(=O)(=O)c2ccc(C(=O)N3CCC4(CC3)c3ccc(Cl)n3CCN4C)cc2)CC1 [Compound 310]
15,≤ 2000,Cc1cc(C(=O)N2CCC3(CC2)c2ccc(C(=O)C(F)(F)F)n2C(C)CN3C)ccc1C(C)(C)O (centres unmarked) [Compound 311]
16,≤ 2000,COc1ccc(C(=O)N2CCC3(CC2)NC(C)(C)Cn2c(C(=O)C(F)(F)F)ccc23)c(F)c1 [Compound 312]
17,2000 to 5000,COc1cc(C(=O)N2CCC3(CC2)c2ccc(C(F)(F)F)n2CCN3C2CCC2)ccc1OC(C)C [Compound 317]
18,> 5000,Cc1ccc(C(=O)N2CCC3(CC2)c2ccc(C(F)(F)F)n2CCN3C)cc1 [Compound 319]
19,≤ 2000,CC(C)Oc1ccc(C(=O)N2CCC3(CC2)c2ccc(C(=O)C(F)(F)F)n2C(C)CN3C)cc1Cl (centres unmarked) [Compound 325]
